Laboratory results taken from article PMC9866191, “Novel 9-Benzylaminoacridine Derivatives as Dual Inhibitors of Phosphodiesterase 5 and Topoisomerase II for the Treatment of Colon Cancer” (Molecules, 2023).

Legend:
Assay in all cases: NCI-60 one-dose screen
Type in all cases: cell-based
LOX IMVI = conditions: Homo sapiens, Melanoma panel, single dose 10^−5 M, read-out: Growth inhibition %
TK-10 = conditions: Homo sapiens; TK-10, Renal Cancer panel; single dose 10^−5 M; read-out: Growth inhibition %
U251 = conditions: Homo sapiens, U-251; U251, CNS Cancer panel; single dose 10^−5 M; read-out: Growth inhibition %
MCF7 = conditions: Homo sapiens; MCF7, Breast Cancer panel; single dose 10^−5 M; read-out: Growth inhibition %
A498 = conditions: Homo sapiens; A498, Renal Cancer panel; single dose 10^−5 M; read-out: Growth inhibition %
NCI-H460 = conditions: Homo sapiens; NCI-H460, Non-small cell lung panel; single dose 10^−5 M; read-out: Growth inhibition %
RXF 393 = conditions: Homo sapiens; RXF 393, Renal Cancer panel; single dose 10^−5 M; read-out: Growth inhibition %
SF-539 = conditions: Homo sapiens; SF-539, CNS Cancer panel; single dose 10^−5 M; read-out: Growth inhibition %
PC-3 = conditions: Homo sapiens; PC-3, Prostate Cancer panel; single dose 10^−5 M; read-out: Growth inhibition %
SNB-19 = conditions: Homo sapiens; SNB-19, CNS Cancer panel; single dose 10^−5 M; read-out: Growth inhibition %
RPMI-8226 = conditions: Homo sapiens; RPMI-8226, Leukemia panel; single dose 10^−5 M; read-out: Growth inhibition %
UACC-257 = conditions: Homo sapiens; UACC-257, Melanoma panel; single dose 10^−5 M; read-out: Growth inhibition %
OVCAR-4 = conditions: Homo sapiens; OVCAR-4, Ovarian Cancer panel; single dose 10^−5 M; read-out: Growth inhibition %
OVCAR-5 = conditions: Homo sapiens; OVCAR-5, Ovarian Cancer panel; single dose 10^−5 M; read-out: Growth inhibition %
SF-295 = conditions: Homo sapiens; SF-295, CNS Cancer panel; single dose 10^−5 M; read-out: Growth inhibition %
NCI-H23 = conditions: Homo sapiens; NCI-H23, Non-small cell lung panel; single dose 10^−5 M; read-out: Growth inhibition %
HOP-62 = conditions: Homo sapiens; HOP-62, Non-small cell lung panel; single dose 10^−5 M; read-out: Growth inhibition %
MALME-3M = conditions: Homo sapiens, Melanoma panel, single dose 10^−5 M, read-out: Growth inhibition %
NCI-H522 = conditions: Homo sapiens; NCI-H522, Non-small cell lung panel; single dose 10^−5 M; read-out: Growth inhibition %
SK-MEL-2 = conditions: Homo sapiens; SK-MEL-2, Melanoma panel; single dose 10^−5 M; read-out: Growth inhibition %
A549/ATCC = conditions: Homo sapiens, Non-small cell lung panel, single dose 10^−5 M, read-out: Growth inhibition %
NCI-H322M = conditions: Homo sapiens, Non-small cell lung panel, single dose 10^−5 M, read-out: Growth inhibition %
NCI/ADR-RES = conditions: Homo sapiens, Ovarian Cancer panel, single dose 10^−5 M, read-out: Growth inhibition %
MDA-MB-468 = conditions: Homo sapiens; MDA-MB-468, Breast Cancer panel; single dose 10^−5 M; read-out: Growth inhibition %
SK-OV-3 = conditions: Homo sapiens; SK-OV-3, Ovarian Cancer panel; single dose 10^−5 M; read-out: Growth inhibition %
M14 = conditions: Homo sapiens; M14, Melanoma panel; single dose 10^−5 M; read-out: Growth inhibition %
HCC-2998 = conditions: Homo sapiens; HCC-2998, Colon Cancer panel; single dose 10^−5 M; read-out: Growth inhibition %
SN12C = conditions: Homo sapiens, Renal Cancer panel, single dose 10^−5 M, read-out: Growth inhibition %
T-47D = conditions: Homo sapiens, T47D, Breast Cancer panel, single dose 10^−5 M, read-out: Growth inhibition %
UACC-62 = conditions: Homo sapiens; UACC-62, Melanoma panel; single dose 10^−5 M; read-out: Growth inhibition %
HCT-116 = conditions: Homo sapiens, read-out: Growth inhibition %

SMILES | inhibition at 10 µM (LOX IMVI) [%] | inhibition at 10 µM (TK-10) [%] | inhibition at 10 µM (U251) [%] | inhibition at 10 µM (MCF7) [%] | inhibition at 10 µM (A498) [%] | inhibition at 10 µM (NCI-H460) [%] | inhibition at 10 µM (RXF 393) [%] | inhibition at 10 µM (SF-539) [%] | inhibition at 10 µM (PC-3) [%] | inhibition at 10 µM (SNB-19) [%] | inhibition at 10 µM (RPMI-8226) [%] | inhibition at 10 µM (UACC-257) [%] | inhibition at 10 µM (OVCAR-4) [%] | inhibition at 10 µM (OVCAR-5) [%] | inhibition at 10 µM (SF-295) [%] | inhibition at 10 µM (NCI-H23) [%] | inhibition at 10 µM (HOP-62) [%] | inhibition at 10 µM (MALME-3M) [%] | inhibition at 10 µM (NCI-H522) [%] | inhibition at 10 µM (SK-MEL-2) [%] | further results
Clc1ccccc1CNc1c2ccccc2nc2ccccc12 [Compound 11, Acridin-9-yl-(2-chlorobenzyl)-amine] | 95.2 | 57.5 | 76.8 | 100 | 106 | 91.2 | 85 | 93.8 | 82.9 | 74.2 | 127 | 55.7 | 86.9 | 67.4 | 78.3 | 78.4 | 59.1 | 81 | 71.5 | 44.4 | inhibition at 10 µM (A549/ATCC): 80.8%; inhibition at 10 µM (NCI-H322M): 73%; inhibition at 10 µM (NCI/ADR-RES): 76.2%; inhibition at 10 µM (MDA-MB-468): 128%; inhibition at 10 µM (SK-OV-3): 45.1%; inhibition at 10 µM (M14): 81.9%; inhibition at 10 µM (HCC-2998): 117%; inhibition at 10 µM (SN12C): 72.2%; inhibition at 10 µM (T-47D): 69.5%; inhibition at 10 µM (UACC-62): 59%; inhibition at 10 µM (HCT-116): 91.9%
Clc1cccc(CNc2c3ccccc3nc3ccccc23)c1 [Compound 12, Acridin-9-yl-(3-chlorobenzyl)-amine] | 98.2 | 47.9 | 77.3 | 99.1 | 103 | 85.8 | 81 | 90.7 | 76.5 | 73.6 | 124 | 54.6 | 81.2 | 67.6 | 79.2 | 68 | 54.5 | 55 | 58.3 | 22.7 | inhibition at 10 µM (A549/ATCC): 72.1%; inhibition at 10 µM (NCI-H322M): 68.7%; inhibition at 10 µM (NCI/ADR-RES): 73.7%; inhibition at 10 µM (MDA-MB-468): 118%; inhibition at 10 µM (SK-OV-3): 36.1%; inhibition at 10 µM (M14): 64.5%; inhibition at 10 µM (HCC-2998): 154%; inhibition at 10 µM (SN12C): 76.4%; inhibition at 10 µM (T-47D): 59.1%; inhibition at 10 µM (UACC-62): 47.5%; inhibition at 10 µM (HCT-116): 91.3%
c1coc(CNc2c3ccccc3nc3ccccc23)c1 [Compound 14, Acridin-9-yl-furan-2-ylmethyl-amine] | 62.9 | 11.6 | 34.9 | 78.7 | 79.9 | 43.5 | 38.5 | 34.1 | 33 | 37.2 | 43.4 | 18.3 | 43.1 | 23.6 | 46.1 | 36.4 | 30.4 | 9.63 | 52.7 | -1.22 | inhibition at 10 µM (A549/ATCC): 38.1%; inhibition at 10 µM (NCI-H322M): 35%; inhibition at 10 µM (NCI/ADR-RES): 55.2%; inhibition at 10 µM (MDA-MB-468): 70.7%; inhibition at 10 µM (SK-OV-3): 29.1%; inhibition at 10 µM (M14): 20.3%; inhibition at 10 µM (HCC-2998): 31.1%; inhibition at 10 µM (SN12C): 46.5%; inhibition at 10 µM (T-47D): 30.7%; inhibition at 10 µM (UACC-62): 33.9%; inhibition at 10 µM (HCT-116): 76%
COc1ccc(CNc2c3ccccc3nc3ccccc23)cc1F [Compound 19, Acridin-9-yl-(3-fluoro-4-methoxybenzyl)-amine] | 98.8 | 63.9 | 73.1 | 97.7 | 106 | 93.7 | 88.9 | 81.8 | 69.5 | 72 | 106 | 62.2 | 73.8 | 63.1 | 79.9 | 73 | 55.5 | 76.4 | 63.8 | 54.9 | inhibition at 10 µM (A549/ATCC): 77.2%; inhibition at 10 µM (NCI-H322M): 68.3%; inhibition at 10 µM (NCI/ADR-RES): 79.2%; inhibition at 10 µM (MDA-MB-468): 119%; inhibition at 10 µM (SK-OV-3): 52%; inhibition at 10 µM (M14): 80.1%; inhibition at 10 µM (HCC-2998): 94.2%; inhibition at 10 µM (SN12C): 74.1%; inhibition at 10 µM (T-47D): 65%; inhibition at 10 µM (UACC-62): 57.5%; inhibition at 10 µM (HCT-116): 87.7%
